# Assays:
# [1] = tested on: spontaneously hypertensive rats (SHR); experiment: Antihypertensive activity in spontaneously hypertensive rats (SHR); format: in vivo, male SHR (Okamoto and Aoki strain) rats; details: for Peak time (time of maximum hypotensive effect) / maximum hypotensive effect (decrease compared with the initial blood pressure) / time of maximum hypotensive effect: 30 mg/kg; for Peak time (time of maximum hypotensive effect): p.o.; for maximum hypotensive effect (decrease compared with the initial blood pressure) / time of maximum hypotensive effect: oral
# Protocol: The animals used were male SHR [Okamoto and Aoki strain; cf. Jap. Circul. […] Proc. Soc. […] The other end of the cannula was exposed through the skin on the back of the neck and fixed. After 1 to 4 days, the aortic cannula was connected to a pressure transducer (produced by Nihon Koden Co., Ltd., Japan; Model MP-4T), and conscious blood pressure was measured by direct method. On the day of the experiment, the blood pressure was measured for one hour prior to dosing. The test compound, suspended in 0.5% aqueous tragacanth solution, was administered orally at a volume of 3.0 ml/kg and the blood pressure was measured continuously for 5 hours.
# The changes of blood pressure are expressed by the mean pressure calculated from the values of systolic and diastolic pressure.
# [2] = tested on: vasopressin-induced ST depression; experiment: Preventive effect on vasopressin-induced ST depression (experimental model of angina pectoris); format: in vivo, Male Donryu strain rats; design: key to Preventive effect on ST depression, 7 hours / Preventive effect on ST depression, 1 hour / Preventive effect on ST depression, 5 hours / Preventive effect on ST depression, 3 hours: +: Significantly different from vehicle control (P < 0.05); -: No significant difference; details: for Preventive effect on ST depression, 1 hour: 1 hour following administration; for Preventive effect on ST depression, 3 hours: 3 hours following administration; for Preventive effect on ST depression, 5 hours: 5 hours following administration; for Preventive effect on ST depression, 7 hours: 7 hours following administration; for preventive effect on the ST depression (in words): p.o., compared with diltiazem hydrochloride
# Protocol: (1) Preventive effect on vasopressin-induced ST depression (effect in experimental model of angina pectoris)
# The test was carried out according to the method of Hatano et al. [cf. Pharmacometrics, 19, 311-317 (1980)].
# Male Donryu strain rats, weighing 130-180 g, were anesthetized with 60 mg/kg (i.p.) of sodium pentobarbital. Lead II electrocardiogram was recorded. The ST depression produced with 0.2 IU/kg (i.v.) of vasopressin was recorded at intervals of a given period for 5 minutes after the administration of vasopressin. The test compound, suspended in 0.5% aqueous tragacanth solution, was administered orally 1, 3, 5 and 7 hours before the administration of vasopressin. The amplitude of ST depression was measured by means of the computer, and the data were analyzed statistically by two-dimensional analysis between the control group and the treated group to evaluate the effect of the test compound. Each group of 5 rats was used for each dose of the test compound.
# [3] = tested on: methacholine-induced ST elevation; experiment: Preventive effect on methacholine-induced ST elevation (experimental model of variant angina); format: in vivo, Male SD strain rats; details: i.v.; for ST elevation, administn. of M (8 μg) after administn. of test compd. (at peak time): ± S.E.; for preventive effect on the ST elevation (in words): compared with diltiazem hydrochloride
# Protocol: (2) Preventive effect on methacholine-induced ST elevation (effect in experimental model of variant angina)
# The test was carried out according to the method of Sakai et al. [cf. J. Pharmacol. Methods, 5, 325-336 (1981)].
# Male SD strain rats, weighing about 500 g, were anesthetized with 60 mg/kg (i.p.) of sodium pentobarbital. Lead II electrocardiogram was recorded. The ST elevation was produced with 8.0 μg of metacholine given into the coronary […] through the cannula inserted from the right carotid artery. The test compound, dissolved in 5% ethanol-physiological saline solution, was administered intravenously. The amplitude of ST elevation was measured by means of the computer 0.5, 5 and 10 minutes after the administration of the test compound and afterward at intervals of 10-minute. The effect of the test compound was evaluated by comparing the amplitude of ST elevation after administration of the test compound with that before the administration. Each group of 5 rats was used for each dose of the test compound.
# The abbreviation M in the table represents metacholine.
# in vivo = details: mouse, mortality for 7 days
# Text: STD-ddY strain mice were used in groups of 10 animals each.
# [4] = 0.3 mg/kg, * P < 0.05, ** P < 0.01
Compound,Peak time (time of maximum hypotensive effect) [1] [h],maximum hypotensive effect (decrease compared with the initial blood pressure) [1],time of maximum hypotensive effect [1] [h],"Preventive effect on ST depression, 1 hour ([2]; 3 mg/kg p.o.)","Preventive effect on ST depression, 3 hours ([2]; 3 mg/kg p.o.)","Preventive effect on ST depression, 5 hours ([2]; 3 mg/kg p.o.)","Preventive effect on ST depression, 1 hour ([2]; 10 mg/kg p.o.)","Preventive effect on ST depression, 5 hours ([2]; 10 mg/kg p.o.)","Preventive effect on ST depression, 7 hours ([2]; 10 mg/kg p.o.)","Preventive effect on ST depression, 7 hours ([2]; 30 mg/kg p.o.)",preventive effect on the ST depression (in words) [2],peak time (preventive effect on ST elevation) ([3]; 0.1 mg/kg) [min],"ST elevation, administn. of M (8 μg) after administn. of test compd. (at peak time) ([3]; 0.1 mg/kg, * P < 0.05)",peak time (preventive effect on ST elevation) ([3]; 0.3 mg/kg) [min],"ST elevation, administn. of M (8 μg) after administn. of test compd. (at peak time) [3, 4]",preventive effect on the ST elevation (in words) [3],other results
"O=C(CCCN1CCN(c2ccc(F)cc2)CC1)NC1c2ccccc2C[S+]([O-])c2ccccc21 (single isomer, unassigned) [Example 136, 11-[4-[4-(4-fluorophenyl)-1-piperazinyl]butyrylamino]-6,11-dihydrodibenzo[b,e]thiepin-5-oxide-A]",5,12-14%,4 to 5,,,,,,,,,,,,,,
"Cc1ccc2c(c1)C(NC(=O)CCCN1CCN(c3ccc(F)cc3)CC1)c1ccccc1CS2 (stereo not drawn) [2(1), 11-[4-[4-(4-fluorophenyl)-1-piperazinyl]butyrylamino]-2-methyl-6,11-dihydrodibenzo[b,e]thiepin]",,,,,,,,,,,,,,,,,duration of antihypertensive activity (in words) ([1]; compared with commercially available calcium antagonists): longer duration of antihypertensive activity than that of the commercially available calcium antagonists
"Cc1ccc2c(c1)C(NC(=O)CCCN1CCN(c3ccc(F)cc3)CC1)c1ccccc1CS2 (stereo not drawn) [2(3), 11-[4-[4-(4-fluorophenyl)-1-piperazinyl]butyrylamino]-2-methyl-6,11-dihydrodibenzo[b,e]thiepin]",4,12-14%,4 to 5,-,-,-,+,+,-,+,more prolonged preventive effect on the ST depression than diltiazem hydrochloride,5,+0.19 ± 0.05 ΔmV,0.5,+0.13 ± 0.02 ΔmV,preventive effect on the ST elevation comparable to that of diltiazem hydrochloride,"Preventive effect on ST depression, 7 hours ([2]; 3 mg/kg p.o.): -; Preventive effect on ST depression, 3 hours ([2]; 10 mg/kg p.o.): +; Preventive effect on ST depression, 1 hour ([2]; 30 mg/kg p.o.): +"
"O=C(CCCN1CCN(c2ccccc2)CC1)NC1c2ccccc2CSc2ccccc21 (stereo not drawn) [6(1), 11-[4-(4-phenyl-1-piperazinyl)butyrylamino]-6,11-dihydrodibenzo[b,e]thiepin]",,,,,,,,,,,,0.5,+0.15 ± 0.05 ΔmV,5,+0.07 ± 0.01 ΔmV,preventive effect on the ST elevation comparable to that of diltiazem hydrochloride,
"O=C(CCCN1CCN(c2ccc(F)cc2)CC1)NC1c2ccccc2C=Cc2ccccc21 [79(3), 5-[4-[4-(4-fluorophenyl)-1-piperazinyl]butyrylamino]-5H-dibenzo[a,d]cycloheptene]",,,,+,+,-,+,+,-,+,more prolonged preventive effect on the ST depression than diltiazem hydrochloride,5,+0.12 ± 0.02 ΔmV,0.5,+0.04 ± 0.02 ΔmV,preventive effect on the ST elevation comparable to that of diltiazem hydrochloride,"peak time (preventive effect on ST elevation) ([3]; 1.0 mg/kg): 0.5 min; ST elevation, administn. of M (8 μg) after administn. of test compd. (at peak time) ([3]; 1.0 mg/kg, ** P < 0.01): +0.08 ± 0.01 ΔmV; LD50 at 168 h (in vivo; ip, single intraperitoneal administration): > 1000 mg/kg; LD50 at 168 h (in vivo; single oral administration): > 4000 mg/kg"

# Source: patent US4749703A, “Calcium antagonist piperazine derivatives, and compositions therefor” (Dainippon Pharmaceutical Co., Ltd., priority 1984, dated 1988)
